Measured values taken from US6734186B1, “Compounds for the treatment of female sexual dysfunction” (Pfizer Inc., priority 1999, dated 2004).
“Also recorded” adds a separate entry of the source. Where two headings read alike, the source gives them in different places.

Assays:
[1] = system: human vaginal smooth muscles cell cultures; details: VIP 0.5 μM; Traish 1999; cited from earlier work
[2] = system: anaesthetised rabbit model of sexual arousal; test: Increase in vaginal blood flow after iv infusion of vasoactive agents, anaesthetised rabbit model of sexual arousal (laser Doppler); type: in vivo
Description: (§1) A ventral midline incision was made, at the caudal end of the pubis, to expose the pubic area. Connective tissue was removed to expose the tunica of the clitoris, ensuring that the wall was free from small blood vessels. The external vaginal wall was also exposed by removing any connective tissue. One laser Doppler flow probe was inserted 3 cm into the vagina, so that half the probe shaft was still visible. A second probe was positioned so that it lay just above the external clitoral wall. The position of these probes was then adjusted until a signal was obtained. A second probe was placed just above the surface of a blood vessel on the external vaginal wall. Both probes were clamped in position.
(§2) Vaginal and clitoral blood flow was recorded either as numbers directly from the Flowmeter using Po-ne-mah data acquisition software (Ponemah Physiology Platform, Gould Instrument Systems Inc), or indirectly from Gould chart recorder trace. Calibration was set at the beginning of the experiment (0-125 ml/min/100 g tissue).
An initial infusion of Hepsaline (50UI/ml) was infused to act as a negative control.

[3] = system: anaesthetised rabbit
Procedure: Female New Zealand rabbits (˜2.5 kg) were pre-medicated with a combination of Medetomidine (Domitor®) 0.5 ml/kg i.m., and Ketamine (Vetalar®) 0.25 ml/kg i.m. whilst maintaining oxygen intake via a face mask. The rabbits were tracheotomised using a Portex™ uncuffed endotracheal tube 3 ID., connected to ventilator and maintained at a ventilation rate of 30-40 breaths per minute, with an approximate tidal volume of 18-20 ml, and a maximum airway pressure of 10 cm H2O. Anaesthesia was then switched to Isoflurane and ventilation continued with O2 at 2 l/min. The right marginal ear vein was cannulated using a 23G or 24G catheter, and Lactated Ringer solution perfused at 0.5 ml/min. The rabbit was maintained at 3% Isoflurane during invasive surgery, dropping to 2% for maintenance anaesthesia.
The left groin area of the rabbit was shaved and a vertical incision was made approximately 5 cm in length along the thigh. The femoral vein and artery were exposed, isolated and then cannulated with a PVC catheter (17G) for the infusion of drugs and compounds. Cannulation was repeated for the femoral artery, inserting the catheter to a depth of 10 cm to ensure that the catheter reached the abdominal aorta. This arterial catheter was linked to a Gould system to record blood pressure. Samples for blood gas analysis were also taken via the arterial catheter. Systolic and diastolic pressures were measured, and the mean arterial pressure calculated using the formula (diastolic x2÷systolic)+3. Heart rate was measured via the pulse oxymeter and Po-ne-mah data acquisition software system (Ponemah Physiology Platform, Gould Instrument Systems Inc).

[4] = system: isolated rabbit vagina; test: Relaxation of precontracted (1 μM phenylephrine) isolated rabbit vaginal strips; type: cell-based
Procedure: 3.7 (a). Rabbit vagina in vitro preparation:—Female New Zealand white rabbits (2.0-3.0 kg) were killed by cervical dislocation. The abdominal cavity was opened and the vagina excised. Tissue strips were mounted longitudinally in Wesley Co. 5 ml silanised organ chambers with braided silk sutures (6/0 gauge) at an initial resting tension of 1.5 g in Krebs bicarbonate buffer maintained at 37° C. and gassed with 95%O2/5%CO2. The upper ligature of each tissue strip was attached to a 10 g capacity force-displacement transducer and changes in isometric force were measured and recorded using a DART in vitro data capture system. Tissues were allowed to equilibrate for 1.5 hours and were regularly washed with Krebs.
Each tissue was contracted using 1 μM bath concentration of phenylephrine. […] Tissues then received either a test agent (eg NEP or PDE inhibitor) or DMSO vehicle (time matched control).
For the purpose of curve fitting the minimum relaxation response was constrained to 0% and the maximum relaxation response was allowed to free fit.

[5] = system: anaesthetised rabbit model of sexual arousal; test: Increase in clitoral blood flow after iv infusion of vasoactive agents, anaesthetised rabbit model; type: in vivo; details: VIP 200 μg/kg iv infusion
Description: as §1, §2

SMILES: CC[C@H](C)[C@H](NC(=O)[C@H](CO)NC(=O)[C@H](CC(N)=O)NC(=O)[C@H](CC(C)C)NC(=O)[C@H](Cc1ccc(O)cc1)NC(=O)[C@H](CCCCN)NC(=O)[C@H](CCCCN)NC(=O)[C@@H](NC(=O)[C@H](C)NC(=O)[C@H](CCSC)NC(=O)[C@H](CCC(N)=O)NC(=O)[C@H](CCCCN)NC(=O)[C@H](CCCNC(=N)N)NC(=O)[C@H](CC(C)C)NC(=O)[C@H](CCCNC(=N)N)NC(=O)[C@@H](NC(=O)[C@H](Cc1ccc(O)cc1)NC(=O)[C@H](CC(N)=O)NC(=O)[C@H](CC(=O)O)NC(=O)[C@@H](NC(=O)[C@H](Cc1ccccc1)NC(=O)[C@@H](NC(=O)[C@H](C)NC(=O)[C@H](CC(=O)O)NC(=O)[C@H](CO)NC(=O)[C@@H](N)Cc1c[nH]cn1)C(C)C)[C@@H](C)O)[C@@H](C)O)C(C)C)C(=O)N[C@@H](CC(C)C)C(=O)N[C@@H](CC(N)=O)C(N)=O [VIP, Vasoactive intestinal peptide]
- effect on cAMP levels in vaginal smooth muscle cell cultures [1]: no effect; also recorded: fails to elevate
- increase in vaginal blood flow ([2]; VIP 60 μg/kg intravenous): 24.7±3.6 ml/min/100 g tissue
- time blood flow remained elevated above basal post-infusion ([2]; VIP 60 μg/kg intravenous): about 11 minutes
- increase in vaginal blood flow ([2]; VIP 6.0 g/kg (so in the source)): 7.5±1.3 ml/min/100 g tissue
- increase in heart rate ([3]; VIP 6.0 μg/kg iv): 16±4 beats per minute
- reduction in mean arterial blood pressure ([3]; VIP 6.0 μg/kg iv): 13.2±0.7 mm Hg
- increase in heart rate ([3]; VIP 60.0 μg/kg iv): 111±30 beats per minute
- reduction in mean arterial blood pressure ([3]; VIP 60.0 μg/kg iv): 14.7±1.37 mm Hg
- subsequent increase in mean arterial blood pressure ([3]; VIP 60.0 μg/kg iv, following heart rate increase): 8.5±1.4 mm Hg
- effect on mean arterial blood pressure ([3]; anaesthetised rabbit): significant depression
- relaxation of precontracted isolated vagina ([4]; VIP 0.1 μM): circa 80%
- EC50 ([4]; precontracted with 1 μM phenylephrine, read-out: EC50 for relaxation in isolated vaginal tissue): 18.8 ± 0.6 nM
- increase in clitoral blood flow [5]: 115%
